Measurements: patent US20230338609A1, “MEDICAL DEVICES AND MATERIALS COMPRISING BIODEGRADABLE POLYESTERS” (AMICOAT AS, priority 2020, published 2023)
Values after ≈ are worked out from the molar mass of the structure shown.

How the values were obtained:
Format in all cases: cell-based
[1] = system: Salmonella sp - antibiotic-susceptible clinical isolate; assay: MIC microbroth dilution (CLSI)
From the text: (§1) Cation-adjusted Mueller-Hinton broth (Oxoid Ltd., Basingstoke, UK and Trek Diagnostic Systems Ltd., East Grinstead, UK) (supplemented with 5% laked horse blood for Streptococcus spp., Corynebacterium jeikeium and Listeria monocytogenes) was used for aerobic bacteria, with an initial inoculum of approximately 10^5 colony-forming units (CFU)/mL.

[2] = system: Salmonella sp - multi-drug resistant clinical isolate; assay: MIC microbroth dilution (CLSI)
From the text: as §1

[3] = system: Shigella sp - antibiotic-susceptible clinical isolate; assay: MIC microbroth dilution (CLSI)
From the text: as §1

[4] = system: Corynebacterium jeikeium - antibiotic-susceptible clinical isolate
From the text: as §1

[5] = system: Corynebacterium jeikeium - multi-drug resistant clinical isolate
From the text: as §1

[6] = system: EMRSA1 Staphylococcus aureus (MRSA) - SSCmec type 3; conditions: EMRSA1 - SSCmec type 3
From the text: as §1

[7] = system: EMRSA15 Staphylococcus aureus (MRSA) - SSCmec type 4; conditions: EMRSA15 - SSCmec type 4
From the text: as §1

[8] = system: EMRSA16 Staphylococcus aureus (MRSA) - SSCmec type 2; conditions: EMRSA16 - SSCmec type 2
From the text: as §1

[9] = system: EMRSA3 Staphylococcus aureus (MRSA) - SSCmec type 1; conditions: EMRSA3 - SSCmec type 1
From the text: as §1

[10] = system: Enterobacter sp - antibiotic-susceptible clinical isolate
From the text: as §1

[11] = system: Enterobacter sp - multi-drug resistant clinical isolate
From the text: as §1

[12] = system: Enterococcus faecalis - ATCC 29212 antibiotic-susceptible control strain
From the text: as §1

[13] = system: Enterococcus faecalis high-level gentamicin-resistant clinical isolate
From the text: as §1

[14] = system: Enterococcus faecalis vancomycin-resistant (VanA) clinical isolate
From the text: as §1

[15] = system: Enterococcus faecalis vancomycin-resistant (VanB) clinical isolate
From the text: as §1

[16] = system: Enterococcus faecalis vancomycin-susceptible clinical isolate
From the text: as §1

[17] = system: Enterococcus faecium vancomycin-resistant (VanA) clinical isolate
From the text: as §1

[18] = system: Enterococcus faecium vancomycin-resistant (VanB) clinical isolate
From the text: as §1

[19] = system: Enterococcus faecium vancomycin-susceptible clinical isolate
From the text: as §1

[20] = system: Enterococcus gallinarum vancomycin-resistant (VanC) clinical isolate
From the text: as §1

[21] = system: Escherichia coli ATCC25922 - antibiotic-susceptible type strain
From the text: as §1

[22] = system: Group C Streptococcus - antibiotic-susceptible clinical isolate
From the text: as §1

[23] = system: Listeria monocytogenes - antibiotic-susceptible clinical isolate
From the text: as §1

[24] = system: MU50 Staphylococcus aureus (MRSA) - VISA type strain
From the text: as §1

[25] = system: Morganella morganii - multi-drug resistant clinical isolate
From the text: as §1

[26] = system: Pseudomonas aeruginosa - multi-drug resistant clinical isolate
From the text: as §1

[27] = system: Pseudomonas aeruginosa ATCC27853 - antibiotic-susceptible type strain
From the text: as §1

[28] = system: Staphylococcus aureus - methicillin-resistant clinical isolate
From the text: as §1

[29] = system: Staphylococcus aureus - multi-drug-resistant clinical isolate
From the text: as §1

[30] = system: Staphylococcus aureus ATCC 25923 - antibiotic-susceptible control strain
From the text: as §1

[31] = system: Staphylococcus aureus ATCC 29213 - antibiotic-susceptible control strain
From the text: as §1

[32] = system: Staphylococcus aureus ATCC 43300 - methicillin-resistant control strain
From the text: as §1

[33] = system: Staphylococcus epidermidis antibiotic susceptible clinical isolate
From the text: as §1

[34] = system: Staphylococcus epidermidis methicillin-resistant clinical isolate
From the text: as §1

[35] = system: Staphylococcus haemolyticus - antibiotic susceptible clinical isolate
From the text: as §1

[36] = system: Staphylococcus saprophyticus - antibiotic susceptible clinical isolate
From the text: as §1

[37] = system: Stenotrophomonas maltophilia - antibiotic-susceptible clinical isolate
From the text: as §1

[38] = system: Streptococcus agalactiae - macrolide-resistant clinical isolate
From the text: as §1

[39] = system: Streptococcus bovis - antibiotic-susceptible clinical isolate
From the text: as §1

[40] = system: Streptococcus bovis - macrolide-resistant clinical isolate
From the text: as §1

[41] = system: Streptococcus pyogenes - Macrolide (MLS) resistant clinical isolate
From the text: as §1

Q: CCCCCCNC(=O)[C@H](CCCNC(=N)N)NC(=O)[C@H](Cc1c(C(C)(C)C)[nH]c2c(C(C)(C)C)cc(C(C)(C)C)cc12)NC(=O)[C@@H](N)CCCNC(=N)N [Compound 8] was tested. Which MIC [1] did it give?
A: 8 µg/mL (≈ 10.4 µM)

Q: What about the MIC [2] of the same compound?
A: 8 µg/mL (≈ 10.4 µM)

Q: What about the MIC [3] of the same compound?
A: 4 µg/mL (≈ 5.21 µM)

Q: What about the MIC [4] of the same compound?
A: 4 µg/mL (≈ 5.21 µM)

Q: And the MIC [5]?
A: 2 µg/mL (≈ 2.6 µM)

Q: And the MIC [6]?
A: 4 µg/mL (≈ 5.21 µM)

Q: What about the MIC [7] of the same compound?
A: 4 µg/mL (≈ 5.21 µM)

Q: What about the MIC [8] of the same compound?
A: 4 µg/mL (≈ 5.21 µM)

Q: What about the MIC [9] of the same compound?
A: 4 µg/mL (≈ 5.21 µM)

Q: What about the MIC [10] of the same compound?
A: 8 µg/mL (≈ 10.4 µM)

Q: What about the MIC [11] of the same compound?
A: 8 µg/mL (≈ 10.4 µM)

Q: And the MIC [12]?
A: 4 µg/mL (≈ 5.21 µM)

Q: And the MIC [13]?
A: 8 µg/mL (≈ 10.4 µM)

Q: And the MIC [14]?
A: 4 µg/mL (≈ 5.21 µM)

Q: And the MIC [15]?
A: 8 µg/mL (≈ 10.4 µM)

Q: What about the MIC [16] of the same compound?
A: 4 µg/mL (≈ 5.21 µM)

Q: And the MIC [17]?
A: 4 µg/mL (≈ 5.21 µM)

Q: What about the MIC [18] of the same compound?
A: 4 µg/mL (≈ 5.21 µM)

Q: What about the MIC [19] of the same compound?
A: 4 µg/mL (≈ 5.21 µM)

Q: And the MIC [20]?
A: 4 µg/mL (≈ 5.21 µM)

Q: What about the MIC [21] of the same compound?
A: 4 µg/mL (≈ 5.21 µM)

Q: And the MIC [22]?
A: 8 µg/mL (≈ 10.4 µM)

Q: And the MIC [23]?
A: 8 µg/mL (≈ 10.4 µM)

Q: What about the MIC [24] of the same compound?
A: 4 µg/mL (≈ 5.21 µM)

Q: What about the MIC [25] of the same compound?
A: 8 µg/mL (≈ 10.4 µM)

Q: What about the MIC [26] of the same compound?
A: 4 µg/mL (≈ 5.21 µM)

Q: What about the MIC [27] of the same compound?
A: 8 µg/mL (≈ 10.4 µM)

Q: What about the MIC [28] of the same compound?
A: 4 µg/mL (≈ 5.21 µM)

Q: And the MIC [29]?
A: 4 µg/mL (≈ 5.21 µM)

Q: And the MIC [30]?
A: 4 µg/mL (≈ 5.21 µM)

Q: What about the MIC [31] of the same compound?
A: 4 µg/mL (≈ 5.21 µM)

Q: And the MIC [32]?
A: 4 µg/mL (≈ 5.21 µM)

Q: What about the MIC [33] of the same compound?
A: 8 µg/mL (≈ 10.4 µM)

Q: And the MIC [34]?
A: 2 µg/mL (≈ 2.6 µM)

Q: And the MIC [35]?
A: 4 µg/mL (≈ 5.21 µM)

Q: And the MIC [36]?
A: 0.5 µg/mL (≈ 0.651 µM)

Q: And the MIC [37]?
A: 4 µg/mL (≈ 5.21 µM)

Q: What about the MIC [38] of the same compound?
A: 8 µg/mL (≈ 10.4 µM)

Q: What about the MIC [39] of the same compound?
A: 8 µg/mL (≈ 10.4 µM)

Q: And the MIC [40]?
A: 2 µg/mL (≈ 2.6 µM)

Q: And the MIC [41]?
A: 8 µg/mL (≈ 10.4 µM)
